A value given as a limit tells only on which side of the number the result lay.

In one test the test system is Hep3B. Briefly: Determination of cell growth curve (cell counting). Type of test: cell-based, human. As to conditions: 5 days. Here is the method: (§1) The effect of TB on the growth of various human cancer cells […]. In FIG. 1, (A) COLO205, (B) HT29, (C) HepG2, (D) Hep3B, (E) HL60, and (F) normal human fibroblast cells were treated with various concentrations of TB (30 to 120 μM). Media with or without TB were renewed daily until cell counting. Three samples were analyzed in each group. Values represent mean±S.E. The cells were cultured for 5 days with or without TB (30-120 μM), and then the cells were harvested and counted. […] Human colon cancer, hepatoma, leukemia, and human normal fibroblast cells at a density of 1×10^4 were plated in 35-mm Petri dishes. TB was added at the indicated doses in 0.05% dimethyl-sulfoxide (DMSO). For control specimens, the same volume of the 0.05% DMSO without TB was added. Media with and without TB were changed daily until cell counting

The next test concerns HT29. Briefly: Determination of cell growth curve (cell counting). Type of test: cell-based, human. Particulars: 5 days. As to the method:
as §1

The next test deals with HL60. Briefly: Determination of cell growth curve (cell counting). Format: cell-based, human. Particulars: 5 days. As to the method: as §1
Another test has as its system HepG2. The test is described as follows: Determination of cell growth curve (cell counting). Type of test: cell-based, human. Particulars: 5 days. Here is the method: as §1
Test [1] deals with COLO 205 cells. The test is described as follows: Flow cytometry (FACS) cell cycle analysis. Type of test: cell-based, human. As to the method:
When they were returned to culture media containing 10% FCS and 0.05% DMSO (control) or 90 μM TB in 0.05% DMSO (which started them all on a new cell cycle) and, at various times thereafter, they were harvested for flow cytometry analysis. […] COLO 205 (A) and HT29 (B) cells were synchronized with 0.04% FCS for 24 h as described in Examples. After synchronization, the cells were then released into complete medium (10% FCS) containing 0.05% DMSO (left panel), or 90 μM TB in 0.05% DMSO (right panel). Percentage of cells in G0/G1, S, and G2/M phases of the cell cycle were determined using established CellFIT DNA analysis software. […] In Hep3B (D) and HL60 (E), TB caused the occurrence of apoptosis in a dose-dependent manner. […] FACS analysis of DNA content after 15 h release from quiescence by incubation in culture media supplemented with 10% FCS and various concentrations of TB in 0.05% DMSO. Percentage of cells in G0/G1, S, and G2/M phases of the cell cycle were determined using established CellFIT DNA analysis software.
The invention further tested whether TB can induce cell cycle arrest at a lower concentration with longer exposure. […] The COLO 205 cells were exposed to culture media supplemented with 10% FCS and various concentrations (1 and 5 μM) of TB in 0.05% DMSO for the indicated times. Media with and without TB were changed daily until flowcytometry analysis performed. Percentage of cells in G0/G1, S, and G2/M phases of the cell cycle were determined using established CellFIT DNA analysis software. Three samples were analyzed in each group, and values represent the mean±S.E.
The COLO 205 and HT 29 cells were synchronized as previously described. (Chen R J, et. al., Toxicology & Applied Pharmacology 2000;169(2):132-41.). After the cells had grown to 70-80% confluence, they were rendered quiescent by incubation for 24 h in RPMI 1640 containing 0.04% FCS, and challenged with 10% FCS. Then, after release using trypsin-EDTA, they were harvested at various times, washed twice with PBS/0.1% dextrose, and fixed in 70% ethanol at 4° C. Nuclear DNA was stained with a reagent containing propimdiamdiodine (50 DNase-free RNase (2 U/ml) and measured using a fluorescence-activated cell sorter (FACS). The population of nuclei in each phase of the cell cycle was determined using established CellFIT DNA analysis software (Becton Dickenson, San Jose, Calif.).

Another test relates to HL 60 cells. The test is described as follows: Flow cytometry (FACS) cell cycle analysis. Type of test: cell-based, human. Particulars: TB 10-150 μM, 15 h. For orientation: In flow cytometry, cells or beads pass a laser one at a time.
In test [2] the test system is human gingival fibroblasts. Briefly: Determination of cell growth curve (cell counting). Type of test: cell-based. Particulars: 5 days. As to the method: The effect of TB on the growth of various human cancer cells wasexamined. In FIG. 1, (A) COLO205, (B) HT29, (C) HepG2, (D) Hep3B, (E) HL60, and (F) normal human fibroblast cells were treated with various concentrations of TB (30 to 120 μM). Media with or without TB were renewed daily until cell counting. Three samples were analyzed in each group. Values represent mean±S.E. The cells were cultured for 5 days with or without TB (30-120 μM), and then the cells were harvested and counted. […] However, when TB concentration was increased to 120 μM, a 50% growth inhibition was observed.
Human colon cancer, hepatoma, leukemia, and human normal fibroblast cells at a density of 1×10^4 were plated in 35-mm Petri dishes. TB was added at the indicated doses in 0.05% dimethyl-sulfoxide (DMSO). For control specimens, the same volume of the 0.05% DMSO without TB was added. Media with and without TB were changed daily until cell counting

The subject of test [3] is COLO 205 cells. The test is described as follows: DNA fragmentation (DNA ladder) by electrophoresis of genomic DNA. Format: cell-based, human. Here is the method:
Genomic DNAs extracted from TB-treated COLO 205 were examined by gel electrophoresis. […] In FIG. 9, the part of (A) refers to potentiation of ND-induced apoptosis by TB. […] DNA fragmentation was examined at 24 h after drug treatment. In the lanes 2 and 8, cells received mock treatment as controls. The symbols of “M” (in lanes 1 and 7), refer to “DNA size marker.” (B) average tumor volume of DMSO-treated vs. drug-treated nude mice (n=5). (C) tumor weight, (D) animal body weight, and (E) tumor/body weight ratio were measured at the end of experiment. Five samples were analyzed in each group, and values represent the mean±S.E. Comparisons were subjected to ANOVA followed by Fisher's least significant difference test. Significance was accepted at p<0.05. *TB-, ND-, and TB+ND-treated group different from DMSO-treated group. TB+ND-treated group different from TB- or ND-treated group.

In test [4] the test system is p53, p21/Cip1 and p27/Kip1 protein in COLO 205 tumor tissues. Briefly: Immunocytochemical staining of COLO 205 tumor tissues. Format: in vivo, nude mouse. Particulars: TB-treated vs DMSO-treated nude mice.
Setting [5] is: TB 30-120 μM, media renewed daily, dose-dependent.
The mark [6] stands for this setting: TB concentration increased to 60 μM.

Broadly, the inhibition is the drop in the measured response relative to a control, in per cent. Regarding `CN(C/C=C/C#CC(C)(C)C)Cc1cccc2ccccc12` [TB, 1-Naphthalenemethanamine, N-(6,6-dimethyl-2-hepten-4-ynyl)-N-methyl-, (E)-], the cell number result in the test on Hep3B (setting [5]), in the test with HT29 (setting [5]), with HL60 (setting [5]) and with HepG2 (setting [5]) was “decreased cell number” each time. Besides, the “cell growth at TB 60 μM” value with Hep3B (setting [6]), in the test on HT29 (setting [6]), with HL60 (setting [6]) and in the test with HepG2 (setting [6]) was “cell growth arrest or cell death” each time. Also, in the test on COLO 205 cells [1] (60 μM TB alone, 15 h), the “increase of G0/G1 population” value was “about 2.3 fold”. Further, the “accumulation of cells at the G0/G1 phase” value with COLO 205 cells [1] (90 μM TB after release from quiescence) is on record as greater than 90%. Also, the “G0/G1 cell cycle arrest at low concentration with longer exposure” value is listed as “arrested the COLO 205 cells at the G0/G1 phase” with COLO 205 cells [1] (TB 1 μM for 3 days) and “induce significant G0/G1 cell cycle arrest” in the test on COLO 205 cells [1] (TB 1 μM for 4 days, media changed daily). In addition, the “G0/G1 arrest, dose effect” value in the test on COLO 205 cells [1] (various concentrations of TB, 15 h after release from quiescence, dose-dependent) is recorded as “induced G0/G1 arrest”. The “apoptosis (presence of sub G1)” value in the test on HL 60 cells is on record as “dose-dependently caused the occurrence of apoptosis”. Besides, the G0/G1 arrest entry in the test on HL 60 cells (p53 null cells) is “did not induce G0/G1 arrest”. The inhibition at 120 µM in test [2] (Homo sapiens, Fibroblast, 120 h, TB 120 μM, medium changed daily, read-out: growth inhibition (reduction of cell count)) came out at 50%. For the same compound, in [2] (TB 30-60 μM), the growth rate result is on record as “did not inhibit the growth rate”. Also, the DNA ladder entry in the test on COLO 205 cells [3] (10 μM TB alone, 24 h) is recorded as “does not induce DNA ladder”. Also, the “effect of TB on ND-induced apoptosis” value with COLO 205 cells [3] (co-treatment with TB 10 μM and ND) is listed as “enhanced the ND-induced apoptosis”. In addition, in test [4], the “p53, p21/Cip1 and p27/Kip1 immunoreactivities in tumor tissues” value is “strongly induced”.

(Values after US20050032904A1, “Composition and use of allylamine derivatives” (priority 2003, published 2005).)
